Data taken from patent US20100286076A1, “ECTOPARASITICIDAL METHODS AND FORMULATIONS” (priority 2009, published 2010).

How the values were obtained:
[1] = tested on: adult stage kennel ticks, Rhipicephalus sanguineus; experiment: Oral administration per os to dogs, experimental kennel tick infestation; type: in vivo; details: at the doses tested (30, 50 or 100 mg/kg)
Procedure: (§1) Oral administration per os to dogs. Given the above data, investigation into oral efficacy in dogs was begun. The investigation was conducted to evaluate 1) efficacy for a point dose of 30 mg/kg, against experimental, concurrent infestations with the adult cat flea, Ctenocephalides felis; adult stage American dog ticks, Dermacentor variabilis; and adult stage kennel ticks, Rhipicephalus sanguineus; 2) plasma concentrations of the 30 mg/kg treated dogs; and 3) efficacy for point dosages of either 50 mg/kg or 100 mg/kg, against experimental infestations with adult stage kennel ticks, R. sanguineus.
(§2) Sixteen dogs were selected for two groups of eight dogs (4 male: 4 female) per group. One treatment group received spinetoram, while the other group was left untreated. The dogs were housed individually in concrete-floored chain-link kennels both inside and outside. During the study period the dogs were fed a dry dog chow, except for the day of treatment (day 0) when they received wet canned food. The dogs had ad libitum access to water. […]
(§3) Each dog was experimentally infested with about 100 adult fleas, and 50 ticks of each species on test days—1,5,12,19, 28, 35, and 42, with additional flea infestations conducted on days 49 and 56. […] Knockdown activity (Day 1) was determined using 24 hr post-dosing comb counts. […]

[2] = tested on: adult stage American dog ticks, Dermacentor variabilis; experiment: Oral administration per os to dogs, experimental American dog tick infestation; type: in vivo; details: at the doses tested (30 mg/kg)
Procedure: as §1, §2, §3

[3] = tested on: adult cat flea, Ctenocephalides felis; experiment: Oral administration per os to dogs, experimental adult cat flea infestation, comb counts; type: in vivo
Procedure: as §1
Sixteen dogs were selected for two groups of eight dogs (4 male: 4 female) per group. One treatment group received spinetoram, while the other group was left untreated. The dogs were housed individually in concrete-floored chain-link kennels both inside and outside. During the study period the dogs were fed a dry dog chow, except for the day of treatment (day 0) when they received wet canned food. The dogs had ad libitum access to water.
The first group on day 0 received one or more gelatin capsules containing spinetoram powder by mouth, in the amount of 30 mg/kg, while the untreated group received placebo. For the evaluation of the higher doses (50 and 100 mg/kg) for efficacy against R. sanguineus, dogs from the 30 mg/kg group were re-dosed at the higher levels approximately 2.5 months after the low dose administration, once the flea efficacy data had been collected.
Each dog was experimentally infested with about 100 adult fleas, and 50 ticks of each species on test days—1,5,12,19, 28, 35, and 42, with additional flea infestations conducted on days 49 and 56. Knockdown assessments against both ticks and fleas were conducted 24 hours after dosing. All subsequent counts were conducted 48 hours after infestation. For the higher doses, the dogs were infested with around 50 R. sanguineus ticks one day before re-dosing and again 5 days post re-dosing, with comb counts conducted approximately 24 hours thereafter. Knockdown activity (Day 1) was determined using 24 hr post-dosing comb counts. For all post-treatment residual tick counts, the comb count occurred 48 hours post infestation. Blood samples were drawn on days 14, 21, 28, and 35 to determine concentration of spinetoram in plasma.

House Fly = experiment: Adult House Fly Assay (AhsF), feeding on compound-soaked dental wicks, 24 h mortality; parameters: species or system Musca domestica; details: adult house flies
Procedure: Adult Stable or House Fly Assay (ASF, AhsF). This assay is conducted essentially as described in White, W. H., S. M. Bauer, X. Zhao et al., Comparison of in vitro and in vivo ectoparasiticide activity of an experimental benzimidazole-carbamate with permethrin and amitraz, J. Med. Entomol. 42, 207-211 (2005); and White, W. H., C. M. McCoy, J. A. Meyer et al., Knockdown and mortality comparisons among spinosad-, imidacloprid-, and methomyl-containing baits against susceptible Musca domestica (Diptera: Muscidae) under laboratory conditions, J. Econ. Entomol. 100, 155-163 (2007).
Test material is formulated in DMSO at 10 mM. Doubling dilutions in like solvent are made to yield 10 testing levels. Materials are diluted in either bovine serum (stable flies) or 5% glucose solution (house flies) to obtain desired exposure concentrations from 200-0.39 μM. Approximately 3 ml of diluted test material is placed into a test tube (n=3 per test level) and a dental wick is used to absorb fluid. One dental wick is placed into a small weigh boat inside of a 100 mm Petri dish. Approximately 10 mixed-sex adult flies are anesthetized using carbon dioxide and counted into each dish. Dishes are incubated at 27° C. and 50-70% relative humidity. Flies recover from anesthesia and feed on compound-soaked dental wicks. After 24 h, live/dead flies are enumerated. Nonlinear regression is used to model dose-mortality relationship and obtain relative potency (LD50) data compared to contemporaneous controls (solvent-only or permethrin).

## Spinetoram
[1]
  activity against ticks: did not demonstrate statistically significant activity
[2]
  activity against ticks: did not demonstrate statistically significant activity
[3]; oral 30 mg/kg, Day 7
  geometric mean percent flea reduction, Day 7: 100%
[3]; oral 30 mg/kg, Day 14
  geometric mean percent flea reduction, Day 14: 100%
[3]; oral 30 mg/kg, Day 21
  geometric mean percent flea reduction, Day 21: 99.5%
[3]; oral 30 mg/kg, Day 30
  geometric mean percent flea reduction, Day 30: 100%
[3]; oral 30 mg/kg, Day 37
  geometric mean percent flea reduction, Day 37: 98.9%
[3]; oral 30 mg/kg, Day 44
  geometric mean percent flea reduction, Day 44: 99.7%
[3]; oral 30 mg/kg, Day 51
  geometric mean percent flea reduction, Day 51: 98.2%
[3]; oral 30 mg/kg, Day 58
  geometric mean percent flea reduction, Day 58: 96.9%
[3]; oral 30 mg/kg, Knockdown
  geometric mean percent flea reduction, Knockdown: 99.7%
[3]; oral point dose 30 mg/kg, extends beyond 8 weeks
  residual control: > 97%
House Fly; 24 h, 5% glucose solution, read-out: Potency (24 h EC50 μM)
  EC50: 2.18 µM
House Fly; 24 h EC50
  Spinetoram/Spinosad Potency Ratio: 5.5
